Active and inactive are the calls of the source. The rule behind the calls is not given here.
Legend:
D(2) dopamine receptor [1] = target: T1, D(2) dopamine receptor (Homo sapiens, UniProt P14416); assay: Agonist activity at human D2L receptor expressed in HEK293T cells coexpressing Gi subunit assessed as inhibition of isoproterenol-stimulated cAMP production by luminescence assay; assay type: functional, cell-based, HEK-293T
D(2) dopamine receptor [2] = target: T1, D(2) dopamine receptor; assay: Agonist activity at D2L receptor in human HTLA cells assessed as beta arrestin recruitment at 6 uM after 18 hrs by luminescence assay; assay type: functional, cell-based
D(2) dopamine receptor [3] = target: T1, D(2) dopamine receptor; assay: Partial agonist activity at D2L receptor in human HTLA cells assessed as beta arrestin recruitment at 6 uM after 18 hrs by luminescence assay; assay type: functional, cell-based
D(2) dopamine receptor [4] = target: T1, D(2) dopamine receptor; conditions: HTLA, at 6 µM
Description: Agonist activity at D2L receptor in human HTLA cells assessed as beta arrestin recruitment at 6 uM after 18 hrs by luminescence assay relative to Quinpirole

D(2) dopamine receptor [5] = target: T1, D(2) dopamine receptor; assay: Displacement of [3H]N-methylspiperone from human D2L receptor expressed in CHO cells after 1.5 hrs by microbeta counting method; assay type: cell-based
D(2) dopamine receptor [6] = target: T1, D(2) dopamine receptor; conditions: HTLA, 6 uM
Description: Partial agonist activity at D2L receptor in human HTLA cells assessed as beta arrestin recruitment at 6 uM after 18 hrs by luminescence assay relative to Quinpirole

[7] = target: D(1B) dopamine receptor (Homo sapiens) (UniProt P21918); assay: Binding affinity to D5 receptor
Sequence of D(1B) dopamine receptor (Homo sapiens) (P21918 whole entry): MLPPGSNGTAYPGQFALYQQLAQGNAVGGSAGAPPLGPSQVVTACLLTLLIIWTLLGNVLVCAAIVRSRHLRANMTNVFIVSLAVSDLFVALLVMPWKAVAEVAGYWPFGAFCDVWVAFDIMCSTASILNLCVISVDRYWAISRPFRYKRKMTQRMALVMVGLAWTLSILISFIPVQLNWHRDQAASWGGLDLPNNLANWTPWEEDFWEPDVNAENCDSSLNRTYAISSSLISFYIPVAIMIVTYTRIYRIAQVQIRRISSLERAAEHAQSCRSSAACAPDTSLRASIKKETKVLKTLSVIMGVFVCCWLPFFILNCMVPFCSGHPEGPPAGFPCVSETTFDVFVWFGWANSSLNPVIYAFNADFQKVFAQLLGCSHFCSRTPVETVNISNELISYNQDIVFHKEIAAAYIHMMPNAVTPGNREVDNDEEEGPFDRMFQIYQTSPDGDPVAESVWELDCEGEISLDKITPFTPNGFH

[8] = target: D(1A) dopamine receptor (Homo sapiens) (UniProt P21728); assay: Binding affinity to D1 receptor
Sequence of D(1A) dopamine receptor (Homo sapiens) (P21728 whole entry): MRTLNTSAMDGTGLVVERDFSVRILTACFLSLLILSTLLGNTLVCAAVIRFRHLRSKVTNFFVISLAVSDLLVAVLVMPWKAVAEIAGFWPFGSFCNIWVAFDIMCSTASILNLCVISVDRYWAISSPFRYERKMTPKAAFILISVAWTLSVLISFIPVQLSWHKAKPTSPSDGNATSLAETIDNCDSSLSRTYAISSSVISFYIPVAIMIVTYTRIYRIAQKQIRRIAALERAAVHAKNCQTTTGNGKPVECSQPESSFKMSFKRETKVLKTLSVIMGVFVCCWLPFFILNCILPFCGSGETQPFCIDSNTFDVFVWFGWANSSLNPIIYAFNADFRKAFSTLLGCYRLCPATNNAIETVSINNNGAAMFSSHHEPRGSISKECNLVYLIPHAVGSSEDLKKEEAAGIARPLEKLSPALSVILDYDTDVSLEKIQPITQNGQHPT

Mus musculus [9] = assay: Antipsychotic-like activity in beta- arrestin-2 knockout mouse assessed as inhibition of PCP-induced hyperlocomotion at 2 mg/kg, ip administered 30 min prior to PCP challenge measured after 90 min; assay type: functional, organism-based; set-up: dose 2 mg/kg
Mus musculus [10] = assay: Antipsychotic-like activity in wild type mouse assessed as inhibition of PCP-induced hyperlocomotion at 2 mg/kg, ip administered 30 min prior to PCP challenge measured after 90 min; assay type: functional, organism-based; set-up: dose 2 mg/kg
[11] = target: T2, D(4) dopamine receptor (Homo sapiens) (UniProt P21917); assay: Binding affinity to D4 receptor
T2 sequence (whole entry): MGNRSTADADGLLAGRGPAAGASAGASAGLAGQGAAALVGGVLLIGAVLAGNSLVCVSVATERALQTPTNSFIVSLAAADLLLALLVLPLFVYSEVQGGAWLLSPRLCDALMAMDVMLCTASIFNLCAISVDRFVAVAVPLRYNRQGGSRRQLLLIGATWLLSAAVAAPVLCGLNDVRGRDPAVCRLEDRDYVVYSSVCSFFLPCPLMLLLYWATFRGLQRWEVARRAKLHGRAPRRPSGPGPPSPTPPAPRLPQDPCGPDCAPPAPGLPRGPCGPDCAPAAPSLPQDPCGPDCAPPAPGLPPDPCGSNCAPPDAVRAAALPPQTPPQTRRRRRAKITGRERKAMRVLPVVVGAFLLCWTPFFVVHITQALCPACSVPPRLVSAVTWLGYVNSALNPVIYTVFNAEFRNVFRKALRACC

[12] = target: D(3) dopamine receptor (Homo sapiens) (UniProt P35462); assay: Binding affinity to D3 receptor
Sequence of D(3) dopamine receptor (Homo sapiens) (P35462 whole entry): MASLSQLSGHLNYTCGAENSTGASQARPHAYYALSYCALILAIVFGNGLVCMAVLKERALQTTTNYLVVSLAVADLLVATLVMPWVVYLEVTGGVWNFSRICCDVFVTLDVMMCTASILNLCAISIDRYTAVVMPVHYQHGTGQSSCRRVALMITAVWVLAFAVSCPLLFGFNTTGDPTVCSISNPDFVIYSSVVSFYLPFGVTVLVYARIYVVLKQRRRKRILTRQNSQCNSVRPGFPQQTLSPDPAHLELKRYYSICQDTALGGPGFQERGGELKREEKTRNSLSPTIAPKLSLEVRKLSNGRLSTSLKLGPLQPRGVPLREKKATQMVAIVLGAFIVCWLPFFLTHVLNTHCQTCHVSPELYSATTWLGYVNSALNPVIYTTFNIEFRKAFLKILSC

T1 sequence (P14416 whole entry): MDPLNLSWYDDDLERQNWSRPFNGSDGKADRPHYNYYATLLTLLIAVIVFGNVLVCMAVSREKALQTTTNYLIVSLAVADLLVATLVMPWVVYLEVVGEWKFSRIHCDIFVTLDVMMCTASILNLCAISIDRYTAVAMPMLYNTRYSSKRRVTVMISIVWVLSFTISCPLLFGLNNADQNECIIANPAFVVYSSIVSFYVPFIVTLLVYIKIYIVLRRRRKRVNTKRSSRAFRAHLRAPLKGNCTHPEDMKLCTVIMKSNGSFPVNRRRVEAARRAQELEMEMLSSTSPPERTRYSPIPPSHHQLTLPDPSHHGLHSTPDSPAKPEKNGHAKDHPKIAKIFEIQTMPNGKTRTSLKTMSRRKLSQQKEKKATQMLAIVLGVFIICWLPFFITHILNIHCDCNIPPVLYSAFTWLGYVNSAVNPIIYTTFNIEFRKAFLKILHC

SMILES: O=C1NCCc2ccc(OCCCN3CCN(c4cccc(Cl)c4Cl)CC3)cc21
- EC50 (D(2) dopamine receptor [1]; hek-293t): Not Active
- EC50 (D(2) dopamine receptor [2]): 20 nM

SMILES: Clc1cccc(C2CCN(CCCOc3ccc4scnc4c3)CC2)c1Cl
- EC50 (D(2) dopamine receptor [1]; hek-293t): Not Active
- EC50 (D(2) dopamine receptor [2]): 50 nM

SMILES: O=c1[nH]c2ccc(OCCCCN3CCN(c4cccc(Cl)c4Cl)CC3)cc2[nH]1
- EC50 (D(2) dopamine receptor [1]; hek-293t): Not Active

SMILES: Clc1cccc(N2CCN(CCCOc3ccc4scnc4c3)CC2)c1Cl
- EC50 (D(2) dopamine receptor [1]; hek-293t): Not Active
- EC50 (D(2) dopamine receptor [2]): 126 nM

SMILES: Clc1cccc(N2CCN(CCCCOc3ccc4scnc4c3)CC2)c1Cl
- EC50 (D(2) dopamine receptor [1]; hek-293t): Not Active
- EC50 (D(2) dopamine receptor [3]): 63 nM

SMILES: CCOc1ccc(N2CCN(CCCCOc3ccc4c(c3)NC(=O)CC4)CC2)cc1
- EC50 (D(2) dopamine receptor [1]; read-out: EC50): 251 nM
- EC50 (D(2) dopamine receptor [2]): 50 nM
- Emax (D(2) dopamine receptor [4]): 82%
- Ki (D(2) dopamine receptor [5]): 53 nM

SMILES: O=C1CCc2ccc(OCCCCN3CCCN(c4cccc(Cl)c4Cl)CC3)nc2N1
- EC50 (D(2) dopamine receptor [1]; hek-293t): Not Active
- EC50 (D(2) dopamine receptor [2]): 1.6 nM

SMILES: O=C1CCc2ccc(Oc3ccc(CN4CCN(c5cccc(Cl)c5Cl)CC4)cc3)cc2N1
- EC50 (D(2) dopamine receptor [1]; hek-293t): Not Active
- EC50 (D(2) dopamine receptor [3]): 501 nM

SMILES: O=C1CCc2ccc(OC[C@H]3CC[C@H](CN4CCN(c5cccc(Cl)c5Cl)CC4)CC3)cc2N1
- EC50 (D(2) dopamine receptor [1]; hek-293t): Not Active
- EC50 (D(2) dopamine receptor [3]): 1580 nM
- Emax (D(2) dopamine receptor [6]): 45%
- Ki (D(2) dopamine receptor [5]): 145 nM

SMILES: Clc1cccc(N2CCN(CCCCOc3ccc4cn[nH]c4c3)CC2)c1Cl
- EC50 (D(2) dopamine receptor [1]; hek-293t): Not Active
- EC50 (D(2) dopamine receptor [3]): 100 nM

SMILES: O=C1CCc2ccc(OCCCCN3CCCN(c4cccc(Cl)c4Cl)CC3)cc2N1
- Activity [7]: inactive
- Activity [8]: inactive
- inhibition (Mus musculus [9]): inactive
- inhibition (Mus musculus [10]): Active

SMILES: Clc1cccc(C2CCN(CCCCOc3ccc4scnc4c3)CC2)c1Cl
- EC50 (D(2) dopamine receptor [1]; hek-293t): Not Active
- Activity [7]: inactive
- Activity [8]: inactive
- inhibition (Mus musculus [9]): inactive
- Activity [11]: Active
- inhibition (Mus musculus [10]): Active
- EC50 (D(2) dopamine receptor [2]): 79 nM
- Emax (D(2) dopamine receptor [4]): 78%
- Activity [12]: Active

SMILES: O=C1NCCc2ccc(OCCCN3CCCN(c4cccc(Cl)c4Cl)CC3)cc21
- EC50 (D(2) dopamine receptor [1]; hek-293t): Not Active
- EC50 (D(2) dopamine receptor [2]): 6.3 nM

SMILES: O=C1CCc2ccc(Oc3cccc(CN4CCN(c5cccc(Cl)c5Cl)CC4)c3)cc2N1
- EC50 (D(2) dopamine receptor [1]; hek-293t): Not Active
- EC50 (D(2) dopamine receptor [3]): 316 nM

SMILES: O=C1CCc2ccc(OCCCCN3CCN(c4cccc(Cl)c4Cl)CC3)nc2N1
- EC50 (D(2) dopamine receptor [1]; hek-293t): Not Active

SMILES: Clc1cccc(N2CCCN(CCCOc3ccc4scnc4c3)CC2)c1Cl
- Emax (D(2) dopamine receptor [4]): 71%

SMILES: O=c1[nH]c2ccc(OCCCCN3CCC(c4cccc(Cl)c4Cl)CC3)cc2[nH]1
- EC50 (D(2) dopamine receptor [1]; hek-293t): Not Active

SMILES: CCOc1cccc(N2CCN(CCCCOc3ccc4c(c3)NC(=O)CC4)CC2)c1
- EC50 (D(2) dopamine receptor [1]; read-out: EC50): 158 nM
- EC50 (D(2) dopamine receptor [2]): 10 nM
- Emax (D(2) dopamine receptor [4]): 40%
- Ki (D(2) dopamine receptor [5]): 21 nM

SMILES: CC(C)Oc1ccccc1N1CCN(CCCCOc2ccc3c(c2)NC(=O)CC3)CC1
- EC50 (D(2) dopamine receptor [1]; read-out: EC50): 25 nM
- EC50 (D(2) dopamine receptor [2]): 2 nM
- Emax (D(2) dopamine receptor [4]): 63%
- Ki (D(2) dopamine receptor [5]): 3.1 nM

SMILES: Clc1cccc(N2CCN(CCCOc3ccc4cn[nH]c4c3)CC2)c1Cl
- EC50 (D(2) dopamine receptor [1]; hek-293t): Not Active
- EC50 (D(2) dopamine receptor [2]): 200 nM

SMILES: Clc1cccc(N2CCCN(CCCCOc3ccc4scnc4c3)CC2)c1Cl
- EC50 (D(2) dopamine receptor [1]; hek-293t): Not Active

SMILES: O=C1NCCc2ccc(OCCCCN3CCN(c4cccc(Cl)c4Cl)CC3)cc21
- EC50 (D(2) dopamine receptor [1]; hek-293t): Not Active
- EC50 (D(2) dopamine receptor [3]): 4 nM

Source: ChEMBL document CHEMBL2163335, “Structure-functional selectivity relationship studies of β-arrestin-biased dopamine D₂ receptor agonists” (J Med Chem, 2012)
